Like-named read-outs stand apart in the source and are kept apart here.
How the values were obtained:
IL-8 = assay: Glucocorticoid transrepression assay, IL-8 inhibition (TR); type: cell-based; conditions: Homo sapiens
Method in brief: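 Human lung epithelial NCI-H292 cells at 75-90% confluence were pretreated with steroid or antagonist for 1 h at 37 °C. TNFα was then added at 10 ng/ml final and cells were incubated overnight, with 10 μM dexamethasone as the maximum-inhibition control. Secreted IL-6 and IL-8 were measured in the medium by MSD multi-spot immunoassay.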

[1] = test system: human glucocorticoid response element coupled with a luciferase reporter gene; assay: GRE-transactivation assay (HeLa-GRE luciferase, TA); type: cell-based
Method: HeLa cells were stably transfected with a human glucocorticoid response element coupled with a luciferase reporter gene. Cells were plated in 96 well Packard View Plates (black sides/ clear bottom) at 20 K cells/0.2 ml complete medium. Plates were incubated overnight at 37°/5% CO2. Medium was aspirated and replaced with 150 μl medium containing 5% charcoal-treated FBS and cells incubated overnight again. Test compounds were prepared in 5% charcoal-treated FBS medium. Medium was aspirated from plates and replaced with 100 μl of test compounds or controls. Plates were returned to incubator for exactly 24 hours. To measure induced luciferase, 100 μl of Steady-Glo luciferase assay substrate (Promega) was added to each well. Plates were sealed and mixed on a plate shaker for 5 minutes. Plate bottom opaque seals were added and the plates were allowed to stand for 60 minutes. Luminescence was measured on a Top-Count instrument (Perkin-Elmer).

IL-6 = assay: Glucocorticoid transrepression assay, IL-6 inhibition (TR); type: cell-based; conditions: Homo sapiens; Table 4; NCl-H292 cells, TNFα 10 ng/ml
Method: Human Lung epithelial cell line NCl-H292 cells were dissociated from stock flask using 0.05% trypsin/0.53 mM EDTA. Cells were suspended in complete medium and counted. Cells were plated in 96-well flat-bottom plates at 20K cells /well in 0.2 ml/well. Plates were incubated for 24-48 hours until cells were between 75-90% confluent. Medium was aspirated and replaced with medium containing various concentrations of steroids or antagonists. After 1 hour incubation at 37°, TNFα (10 ng/ml final concentration in 0.2 ml) was added and the cells incubated overnight. Control wells with and without TNF were included on each plate, as well as wells with TNF in addition to a maximum (10 μM) concentration of dexamethasone. The cell culture medium was sampled and IL-6 and IL-8 cytokine production was measured using the MSD Multi-Spot immunoassay.

[2] = symptoms associated with chronic nasal congestion; cited from earlier work
[3] = Table 1, NCl-H292 cells, TNFα 10 ng/ml
[4] = Table 1, NCl-H292 cells, TNFα 10 ng/ml, read-out: IL-8 inhibition (TR) Emax % inhibition
[5] = HeLa cells, 24 hours, luciferase, read-out: EMAX value, GRE-transactivation assay

SMILES	IC50 (IL-8; [3]) [nM]	Emax (IL-8; [4]) [%]	Emax [1, 5] [%]	Emax (IL-6) [%]	IC50 (IL-6) [nM]	further results
CC12Cc3cnn(-c4ccc(F)cc4)c3C=C1CCC1C2[C@@H](O)CC2(C)C1CC[C@]2(O)C(=O)CSc1nc2ccccc2s1 (stereo partly drawn) [Compound 1]	0.06 to 20	> 80	71			
C[C@]12Cc3cnn(-c4ccc(F)cc4)c3C=C1CCC1C2[C@@H](O)C[C@@]2(C)C1CC[C@]2(OC(=O)c1ccco1)C(=O)SCc1ccc(-c2ccccn2)cc1 (stereo partly drawn) [Compound 1]				> 80	0.06 to 20	
C[C@]12Cc3cnn(-c4ccc(F)cc4)c3C=C1CCC1C2[C@@H](O)C[C@@]2(C)C1CC[C@]2(OC(=O)c1ccco1)C(=O)SCc1ccc2ccccc2n1 (stereo partly drawn) [Compound 2]				> 80	0.06 to 20	
C[C@]12Cc3cnn(-c4ccc(F)cc4)c3C=C1CCC1C2[C@@H](O)C[C@@]2(C)C1CC[C@]2(OC(=O)c1ccco1)C(=O)SCc1nc2ccccc2o1 (stereo partly drawn) [Compound 3]				> 80	0.06 to 20	
C[C@]12Cc3cnoc3C=C1CCC1C2[C@@H](O)C[C@@]2(C)C1CC[C@]2(O)C(=O)Nc1nc2cccnc2s1 (stereo partly drawn) [Compound 4-1]						Emax (IL-8; text value for compound 4-1, only a % value printed, read-out: IL-8 inhibition(TR) IC50/Emax(nM, % inhibition)): 23%; Emax ([1]; text value for compound 4-1, only a % value printed, read-out: H Hela-GRE luciferase(TA) IC50/Emax(nM, % inhibition)): 0%
C[C@]12Cc3cnn(-c4ccc(F)cc4)c3C=C1CCC1C2[C@@H](O)C[C@@]2(C)C1CC[C@]2(OC(=O)c1ccco1)C(=O)SCc1cccc(N2CCCC2)n1 (stereo partly drawn) [Compound 4]				> 80	0.06 to 20	
CC12Cc3cnn(CCC#N)c3C=C1CCC1C2[C@@H](O)CC2(C)C1CC[C@]2(O)C(=O)CSc1ccccn1 (stereo partly drawn) [Compound 60]	66 to 400	< 60	15			
CC12Cc3cnn(C4CCOCC4)c3C=C1CCC1C2[C@@H](O)CC2(C)C1CC[C@]2(O)C(=O)CSc1nc2cccnc2s1 (stereo partly drawn) [Compound 71]	66 to 400	> 80	85			
CC12Cc3cnn(C4CCOCC4)c3C=C1CCC1C2[C@@H](O)CC2(C)C1CC[C@]2(O)C(=O)CSc1ccc2ccccc2n1 (stereo partly drawn) [Compound 74]	66 to 400	70 to 80	56			
Cc1ccnc(SCC(=O)[C@@]2(O)CCC3C4CCC5=Cc6c(cnn6C6CCCCC6)CC5(C)C4[C@@H](O)CC32C)n1 (stereo partly drawn) [Compound 131]	0.06 to 20	> 80	83			
Oc1cccc(Nc2ncc(F)c(Nc3cccc(O)c3)n2)c1 [Compound R112]						absolute difference over placebo [2]: 9%; improvement from baseline measurements (prior to drug initiation) [2]: up to 38%; relative improvement over placebo [2]: greater than 20%
C[C@@H]1C[C@H]2[C@@H]3CCC4=CC(=O)C=C[C@]4(C)[C@@]3(F)[C@@H](O)C[C@]2(C)[C@@]1(O)C(=O)CO [dexamethasone, reference compound]			100			
CCC(=O)O[C@]1(C(=O)SCF)[C@H](C)C[C@H]2[C@@H]3C[C@H](F)C4=CC(=O)C=C[C@]4(C)[C@@]3(F)[C@@H](O)C[C@@]21C [fluticasone propionate, reference compound]			99			

From US20120171126A1, “NOVEL [3,2-c] HETEROARYL STEROIDS AS GLUCOCORTICOID RECEPTOR AGONISTS COMPOSITIONS AND USES THEREOF” (priority 2009, published 2012)
